In test [1] the test system is mouse adult fibroblasts. Description: transcription factor-mediated conversion of mouse adult fibroblasts into Hb9::GFP+ spinal motor neurons (iMN conversion screen). In kind it is cell-based. As to conditions: days 1-5, 6-10 or 11-15 of reprogramming, FIG. 4. The source says: FIGS. 1A and 1B illustrate the screens performed to identify small molecule enhancers of induced motor neuron (iMN) conversion. FIG. 1A is a schematic illustration depicting the primary screen for small molecules enhancers of iMN conversion via viral transduction with 7 transcription factors performed on fibroblasts harvested from 2 month old Hb9::GFP mice. FIG. 1B is a graphical illustration depicting the results of a secondary screen performed on the top hits identified by the primary screen depicted in FIG. 1A, pointing to two lead compounds as effective enhancers of iMN conversion.
To this end, a functional reprogramming screen was used to identify small molecules that increase the rate of transcription factor-mediated conversion of mouse adult fibroblasts into Hb9::GFP+ spinal motor neurons (FIGS. 1A and 1B). An inhibitor of Activin-like kinases 4/5/7 (FIG. 2A) and a Polo-like kinase I (PLK1) inhibitor (FIG. 2B) each increased induced motor neuron formation by 5-10-fold (FIG. 3). In combination, the chemicals increased the rate of induced motor neuron formation by 50-fold (FIG. 3).

Test [2] has as its system human fibroblasts. The following applies: FIG. 7.
Test [3] has as its system fibroblasts transduced with Ascl1, Myt1l, and Brn2. The text has this: To determine if Activin inhibition increases conversion into other neuronal types, fibroblasts were transduced with Ascl1, Myt1l, and Brn2, transcription factors that induce the formation of non-motor neurons, and cultured the cells with or without the Activin inhibitor.
The test system of test [4] is FACS-sorted iMNs.
Test [5] concerns Hb9::GFP+ intermediates exhibiting a non-neuronal morphology. The following applies: FIG. 6.

Read-outs that look alike come from different tables or passages of the source.

Consider `CC[C@@H]1C(=O)N(C)c2cnc(Nc3ccc(C(=O)NC4CCN(C)CC4)cc3OC)nc2N1C1CCCC1` [BI 2536, 4-[[(7R)-8-cyclopentyl-7-ethyl-5-methyl-6-oxo-7H-pteridin-2-yl]amino]-3-methoxy-N-(1-methylpiperidin-4-yl)benzamide], for which the “effect on iMN conversion by time of administration (pulse treatments)” value in test [1] is given as “improved conversion only during days 6-10”; in test [1] (listed as PLK1 inhibitor), “only active during days 6-10”.

Consider `Cc1cccc(-c2[nH]ncc2-c2ccc3ncccc3n2)n1` [RepSox], for which the “generation of patient specific human iMNs” value in test [2] is on record as “promotes generation”. Further, the “induced neuron (iN) conversion” value in test [3] (FIG. 9) was “enhances induced neuron (iN) conversion”. Moreover, the “increase of the number of neurons generated” value in test [3] (with versus without the Activin inhibitor) turned out to be 10 fold. The “survival of FACS-sorted iMNs” value in test [4] (SOD1G93A motor neurons, FIG. 5B) is “promotes survival”; in test [4] (wild-type (WT) motor neurons, FIG. 5A) it was “promotes survival”. For the same molecule, the “effect on iMN conversion by time of administration (pulse treatments)” value in test [1] is listed as “improved iMN conversion regardless of the time it is added to the culture medium”; in test [1] (listed as Activin inhibitor) it was “effective when administered from days 1-5, 6-10, or 11-15”. Moreover, the “survival of Hb9::GFP+ intermediates” value in test [5] was “promotes survival”.

(Values after patent US20160115447A1, “COMPOSITIONS AND METHODS FOR IMPROVING INDUCED NEURON GENERATION” (PRESIDENT AND FELLOWS OF HARVARD COLLEGE, priority 2013, published 2016).)
